The record followed here is article PMC11611271, “Rapid prediction of key residues for foldability by machine learning model enables the design of highly functional libraries with hyperstable constrained peptide scaffolds” (PLOS Computational Biology, 2024).

Where a SMILES comes first, the peptide text is derived from it. Bridges are numbered along the chain shown (N, C = ends).

One experiment relates to CD8α. Kind of experiment: phage spot ELISA on CD8α. In kind it is binding. The note with it: S3 Table sheet CD8α; for S/N: phage spot ELISA signal/noise; for ELISA: phage spot ELISA signal. The source says:
To determine the performance of the libraries for ligand discovery we chose a panel of eight protein targets, which have no structural homology and a wide mass range (Fig 7C). We screened these eight targets with solution panning strategy and two additional plate panning for CD8α/β and CD28, thus ten panning campaigns in total. We consider clones showing spot phage ELISA signal > 0.3 and signal/noise ratio > 2 as positive hits. At least one binding hit was discovered for nine out of the ten panning campaigns, surpassing the success rate of the best DCP scaffolds reported previously. We also obtained the NGS data for these screening and the ranking of clones for their enrichment along the rounds of screening was analyzed and considered the top-ranking clones as potential hits. Based on their sequence diversity we selected 16 potential hits spanning five protein targets for peptide synthesis in their linear form. Seven of these are hits with positive phage ELISA signal and nine were selected based on NGS ranking without spot ELISA available. Subsequently, we conducted in vitro folding experiments on these peptides in various buffers. We observed a strong propensity for spontaneous folding regardless of the buffer condition. All HCP hits tested successfully folded into three-disulfide-containing product within two days in a universal buffer system (PBS, pH 7.4, 50% DMSO) without the need for a redox pair, as shown in Fig 8A. The binding of these folded peptides to their respective target proteins was confirmed using SPR (Table 4 and S1 Data) and binding kinetics are exemplified by the high-affinity peptide 5ji4-CRD7-2 (see Fig 8B). Among seven selected ELISA-positive hits, all of them were successfully synthesized and in vitro folded with three disulfide bonds and five were proven to be validated binders by SPR (Table 4). Nine peptides selected from the NGS ranking were synthesized and folded with the expected number of disulfide bonds and five of them bound to their target with affinities in the μM range as determined by SPR (Table 4). In general, binding affinities for these SPR-validated initial hits are weak, with Kd values in the micromolar range and fast on- and off-rates. There are two exceptions with binding affinities in the nanomolar range.
(§1) The 5ji4 libraries were constructed following the Kunkel mutagenesis method and the solution panning protocol was followed as previously described. After four to five rounds of binding selection, while eluted pool was subjected to NGS analysis, individual phage clones were also picked and analyzed with phage spot ELISA. Positive clones were subjected to SANGER sequencing.

The subject of the next experiment is HtrA1. Kind of experiment: phage spot ELISA on HtrA1. In kind it is binding. The note with it: for ELISA s/n: Spot ELISA signal/noise; for ELISA s/n / ELISA signal: Fig 9A; for ELISA signal: Spot ELISA.
Source text: To determine the performance of the libraries for ligand discovery we chose a panel of eight protein targets, which have no structural homology and a wide mass range (Fig 7C). We screened these eight targets with solution panning strategy and two additional plate panning for CD8α/β and CD28, thus ten panning campaigns in total. We consider clones showing spot phage ELISA signal > 0.3 and signal/noise ratio > 2 as positive hits. […] We also obtained the NGS data for these screening and the ranking of clones for their enrichment along the rounds of screening was analyzed and considered the top-ranking clones as potential hits. Based on their sequence diversity we selected 16 potential hits spanning five protein targets for peptide synthesis in their linear form. Seven of these are hits with positive phage ELISA signal and nine were selected based on NGS ranking without spot ELISA available. Subsequently, we conducted in vitro folding experiments on these peptides in various buffers.
as §1
Among these five hits, A7, which is the SANGER hit, was picked for affinity maturation. Following the same strategy, one soft- and one hard-randomization library was designed targeting the 5JI4 variable regions 1 and 2, respectively. Two libraries were each panned as previously described. Both phage spot ELISA coupled with SANGER sequencing and NGS analysis were applied after affinity maturation.
(In general: An ELISA detects its analyte on a solid surface through an enzyme-linked reagent.)

Regarding “PCDCDVNGETYTVSSSEECEPLCLNWLSSLCRVHCG [CD8α clone 3, phage clone, 5JI4 library, CD8α panning]”, in the experiment with CD8α, the S/N turned out to be 37.9 and the ELISA worked out at 3.371.

In the experiment on HtrA1 (phage spot ELISA signal/noise, S3 Table sheet HtrA1), “PCECTILRGWHFLTSSAECERLCRKLGVTNCRVHCG [HtrA1 clone 1, phage clone, 5JI4 library, HtrA1 panning; sole HtrA1 hit, probably 5ji4-A7]” returned a S/N of 8.86. For the same molecule, the ELISA with HtrA1 (phage spot ELISA signal, S3 Table sheet HtrA1) is 1.0205.

For the molecule `CSCC[C@@H]1NC(=O)[C@H](CO)NC(=O)[C@@H]2CSSC[C@H](NC(=O)[C@H](CCC(=O)O)NC(=O)[C@H](C)NC(=O)[C@H](CO)NC(=O)[C@H](CO)NC(=O)[C@H]([C@@H](C)O)NC(=O)[C@H](CCSC)NC(=O)[C@H](Cc3ccccc3)NC(=O)[C@H]([C@@H](C)O)NC(=O)[C@H](Cc3c[nH]c4ccccc34)NC(=O)CNC(=O)[C@@H]3CCCN3C(=O)[C@H](CC(C)C)NC1=O)C(=O)N[C@@H](CCC(=O)O)C(=O)N[C@@H](CCCNC(=N)N)C(=O)N[C@@H](CC(C)C)C(=O)N[C@H]1CSSC[C@H](NC(=O)[C@H]([C@@H](C)O)NC(=O)[C@H](CCCNC(=N)N)NC(=O)[C@H](CC(C)C)NC(=O)CNC(=O)[C@H](CC(C)C)NC(=O)[C@H](CCCNC(=N)N)NC(=O)[C@H](CC(=O)O)NC1=O)C(=O)N[C@@H](CCCNC(=N)N)C(=O)N[C@@H](C(C)C)C(=O)N[C@@H](Cc1c[nH]cn1)C(=O)N[C@H](C(=O)NCC(=O)O)CSSC[C@H](NC(=O)[C@@H]1CCCN1)C(=O)N[C@@H](CCC(=O)O)C(=O)N2` [5ji4_A7.B7B2] (H-PCECSMLPGWTFMTSSAECERLCDRLGLRTCRVHCG-OH; disulfide 2-35, 4-19, 23-31), in the experiment with HtrA1, the ELISA s/n amounted to 7.2 and the ELISA signal is listed as 3.54.

In the case of `CC[C@H](C)[C@@H]1NC(=O)[C@H]([C@@H](C)O)NC(=O)[C@@H]2CSSC[C@H](NC(=O)[C@H](CCC(=O)O)NC(=O)[C@H](C)NC(=O)[C@H](CO)NC(=O)[C@H](CO)NC(=O)[C@H]([C@@H](C)O)NC(=O)[C@H](CC(C)C)NC(=O)[C@H](Cc3ccccc3)NC(=O)[C@H](Cc3ccc(O)cc3)NC(=O)[C@H](Cc3c[nH]c4ccccc34)NC(=O)CNC(=O)[C@@H]3CCCN3C(=O)[C@H](CC(C)C)NC1=O)C(=O)N[C@@H](CCC(=O)O)C(=O)N[C@@H](CCCNC(=N)N)C(=O)N[C@@H](CC(C)C)C(=O)N[C@H]1CSSC[C@H](NC(=O)[C@H]([C@@H](C)O)NC(=O)[C@H](CCCNC(=N)N)NC(=O)[C@H](CC(C)C)NC(=O)CNC(=O)[C@H](CC(C)C)NC(=O)[C@H](CCCNC(=N)N)NC(=O)[C@H](CC(=O)O)NC1=O)C(=O)N[C@@H](CCCNC(=N)N)C(=O)N[C@@H](C(C)C)C(=O)N[C@@H](Cc1c[nH]cn1)C(=O)N[C@H](C(=O)NCC(=O)O)CSSC[C@H](NC(=O)[C@@H]1CCCN1)C(=O)N[C@@H](CCC(=O)O)C(=O)N2` [5ji4_A7.H5B2] (H-PCECTILPGWYFLTSSAECERLCDRLGLRTCRVHCG-OH; disulfide 2-35, 4-19, 23-31), in the experiment with HtrA1, the ELISA s/n worked out at 7.6 and the ELISA signal is given as 3.59.

`CC[C@H](C)[C@@H]1NC(=O)[C@H]([C@@H](C)O)NC(=O)[C@@H]2CSSC[C@H](NC(=O)[C@H](CCC(=O)O)NC(=O)[C@H](C)NC(=O)[C@H](CO)NC(=O)[C@H](CO)NC(=O)[C@H]([C@@H](C)O)NC(=O)[C@H](CC(C)C)NC(=O)[C@H](Cc3ccccc3)NC(=O)[C@H](Cc3c[nH]cn3)NC(=O)[C@H](Cc3c[nH]c4ccccc34)NC(=O)CNC(=O)[C@@H]3CCCN3C(=O)[C@H](CC(C)C)NC1=O)C(=O)N[C@@H](C)C(=O)N[C@@H](CCCNC(=N)N)C(=O)N[C@@H](CC(C)C)C(=O)N[C@H]1CSSC[C@H](NC(=O)[C@H]([C@@H](C)O)NC(=O)[C@H](CCCNC(=N)N)NC(=O)[C@H](CC(C)C)NC(=O)CNC(=O)[C@H](CC(C)C)NC(=O)[C@H](CCCNC(=N)N)NC(=O)[C@H](CC(=O)O)NC1=O)C(=O)N[C@@H](CCCNC(=N)N)C(=O)N[C@@H](C(C)C)C(=O)N[C@@H](Cc1c[nH]cn1)C(=O)N[C@H](C(=O)NCC(=O)O)CSSC[C@H](NC(=O)[C@@H]1CCCN1)C(=O)N[C@@H](CCC(=O)O)C(=O)N2` [5ji4_A7.B9B2] (H-PCECTILPGWHFLTSSAECARLCDRLGLRTCRVHCG-OH; disulfide 2-35, 4-19, 23-31): in the experiment with HtrA1, the ELISA s/n is 7.0 and the ELISA signal worked out at 3.67.

Consider “PCECDVNGETYTVSSSEECGRLCQYWFIMLCRVHCG [CD8α clone 2, phage clone, 5JI4 library, CD8α panning]”, for which, in the experiment on CD8α, the S/N is 38.5 and the ELISA amounted to 3.391.

Take “PCECDLNGETYTVSSSEECERLCSWYIQYVCRVHCG [CD8α clone 6, phage clone, 5JI4 library, CD8α panning]”: in the experiment on CD8α, the S/N is 2.2 and the ELISA is 0.194.

In the experiment with CD8α, “PCECDVNGETYTVSSSEECERCQDWLFYLCRVHCG [CD8α clone 4, phage clone, 5JI4 library, CD8α panning]” yielded a S/N of 35.6 and an ELISA of 3.525.

Turning to “PAMLLQRNRPYGLLPEECERLCRKLGVTTACHCG [CD8α clone 1, phage clone, 5JI4 library, CD8α panning]”, in the experiment with CD8α, the S/N is listed as 39.9 and the ELISA is 4.75.

As for “PCECDVNGETYTVSSSEECEQDSDCLAGWVCRVHCG [CD8α clone 7, phage clone, 5JI4 library, CD8α panning]”, in the experiment on CD8α, the S/N is 34.2 and the ELISA is on record as 3.252.

For the molecule `CC[C@H](C)[C@@H]1NC(=O)[C@H](CCCNC(=N)N)NC(=O)[C@@H]2CSSC[C@H](NC(=O)[C@H](CC(C)C)NC(=O)[C@H](CCCNC(=N)N)NC(=O)[C@H](C)NC(=O)[C@@H]3CSSC[C@H](NC(=O)[C@H](CCC(=O)O)NC(=O)[C@@H](NC(=O)[C@@H]4CCCN4)CSSC[C@@H](C(=O)NCC(=O)O)NC(=O)[C@H](Cc4c[nH]cn4)NC1=O)C(=O)N[C@@H](CO)C(=O)N[C@@H]([C@@H](C)CC)C(=O)N[C@@H](CC(C)C)C(=O)N1CCC[C@H]1C(=O)NCC(=O)N[C@@H](Cc1c[nH]c4ccccc14)C(=O)N[C@@H](Cc1c[nH]cn1)C(=O)N[C@@H](Cc1ccccc1)C(=O)N[C@@H](CC(C)C)C(=O)N[C@@H]([C@@H](C)O)C(=O)N[C@@H](CO)C(=O)N[C@@H](CO)C(=O)N[C@@H](C)C(=O)N[C@@H](CCC(=O)O)C(=O)N3)C(=O)N[C@@H](CC(=O)O)C(=O)N[C@@H](CCCNC(=N)N)C(=O)N[C@@H](CC(C)C)C(=O)NCC(=O)N[C@@H](CC(C)C)C(=O)N[C@@H](CCCNC(=N)N)C(=O)N[C@@H]([C@@H](C)O)C(=O)N2` [5ji4_A7.c1] (H-PCECSILPGWHFLTSSAECARLCDRLGLRTCRIHCG-OH; disulfide 2-35, 4-19, 23-31), in the experiment on HtrA1, the ELISA s/n is reported as 7.5 and the ELISA signal is 3.55.

Take `CC[C@H](C)[C@@H]1NC(=O)[C@H](CO)NC(=O)[C@@H]2CSSC[C@H](NC(=O)[C@H](CCC(=O)O)NC(=O)[C@H](C)NC(=O)[C@H](CO)NC(=O)[C@H](CO)NC(=O)[C@H]([C@@H](C)O)NC(=O)[C@H](CC(C)C)NC(=O)[C@H](Cc3ccccc3)NC(=O)[C@H](Cc3c[nH]cn3)NC(=O)[C@H](Cc3c[nH]c4ccccc34)NC(=O)CNC(=O)[C@H](CCCNC(=N)N)NC(=O)[C@H](CC(C)C)NC1=O)C(=O)N[C@@H](CCC(=O)O)C(=O)N[C@@H](CCCNC(=N)N)C(=O)N[C@@H](CC(C)C)C(=O)N[C@H]1CSSC[C@H](NC(=O)[C@H]([C@@H](C)O)NC(=O)[C@H](CCCNC(=N)N)NC(=O)[C@H](CC(C)C)NC(=O)CNC(=O)[C@H](CC(C)C)NC(=O)[C@H](CCCNC(=N)N)NC(=O)[C@H](CC(=O)O)NC1=O)C(=O)N[C@@H](CCCNC(=N)N)C(=O)N[C@@H]([C@@H](C)CC)C(=O)N[C@@H](Cc1c[nH]cn1)C(=O)N[C@H](C(=O)NCC(=O)O)CSSC[C@H](NC(=O)[C@@H]1CCCN1)C(=O)N[C@@H](CCC(=O)O)C(=O)N2` [5ji4_A7.D7B2] (H-PCECSILRGWHFLTSSAECERLCDRLGLRTCRIHCG-OH; disulfide 2-35, 4-19, 23-31): in the experiment on HtrA1, the ELISA s/n is recorded as 5.3 and the ELISA signal worked out at 3.45.
